Patent US9642804B2, “Cationic lipids with various head groups for oligonucleotide delivery” (priority 2009, dated 2017)

Tests used:
[1] = test system: mRNA transcript for the firefly (Photinus pyralis) luciferase gene; assay: Mouse in vivo efficacy, luciferase mouse model (liver bioluminescence, IVIS); settings: for Average % Inhibition of Bioluminescence: LNP (cationic lipid/cholesterol/PEG-DMG 60/38/2) with Luc siRNA, tail vein, 48 hours post dose, relative to pre-dose
Method: (§1) LNPs utilizing Compound 9 or 12, in the nominal compositions described immediately above, were evaluated for in vivo efficacy and induction of inflammatory cytokines in a luciferase mouse model. The siRNA targets the mRNA transcript for the firefly (Photinus pyralis) luciferase gene (Accession # M15077). […] The in vivo luciferase model employs a transgenic mouse in which the firefly luciferase coding sequence is present in all cells. ROSA26-LoxP-Stop-LoxP-Luc (LSL-Luc) transgenic mice licensed from the Dana Farber Cancer Institute are induced to express the Luciferase gene by first removing the LSL sequence with a recombinant Ad-Cre virus (Vector Biolabs). Due to the organo-tropic nature of the virus, expression is limited to the liver when delivered via tail vein injection. Luciferase expression levels in liver are quantitated by measuring light output, using an IVIS imager (Xenogen) following administration of the luciferin substrate (Caliper Life Sciences). Pre-dose luminescence levels are measured prior to administration of the RDVs. Luciferin in PBS (15 mg/mL) is intraperitoneally (IP) injected in a volume of 150 uL. After a four minute incubation period mice are anesthetized with isoflurane and placed in the IVIS. imager. The RDVs (containing siRNA) in PBS vehicle were tail vein injected in a volume of 0.2 mL. Final dose levels ranged from 0.3 to 3 mg/kg siRNA. PBS vehicle alone was dosed as a control. Three hours post dose, mice were bled retro-orbitally to obtain plasma for cytokine analysis. Mice were imaged 48 hours post dose using the method described above. Changes in luciferin light output directly correlate with luciferase mRNA levels and represent an indirect measure of luciferase siRNA activity. In vivo efficacy results are expressed as % inhibition of luminescence relative to pre-dose luminescence levels. Plasma cytokine levels were determined using the SearchLight multiplexed cytokine chemoluminescent array (Pierce/Thermo). Systemic administration of the luciferase siRNA RDVs decreased luciferase expression in a dose dependant manner. […] Compound 12, (Table 1 and FIG. 2). […] However, average cytokine induction was lower in the animals dosed with the Compound 9 RDV, relative to the Compound 12 RDV.(FIG. 1).

[2] = test system: cytokines IL-6 and mKC; assay: Mouse in vivo cytokine induction 3 hours post injection (plasma, SearchLight array); settings: Luc siRNA RDV; plasma three hours post dose
Method: as §1

[3] = Rat in vivo toxicity, serum ALT and AST; set-up: species or system Sprague-Dawley rat; settings: ApoB siRNA RDV; for LFTs relative to PBS control dosed rats: serum 24 hours after dosing
Method: After LNP administration, rats are placed in cages with normal diet and water present. Six hours post dose, food is removed from the cages. Animal necropsy is performed 24 hours after LNP dosing. Rats are anesthetized under isoflurane for 5 minutes, then maintained under anesthesia by placing them in nose cones continuing the delivery of isoflurane until ex-sanguination is completed. Blood is collected from the vena cava using a 23 guage butterfly venipuncture set and aliquoted to serum separator vacutainers for serum chemistry analysis. Punches of the excised caudate liver lobe are taken and placed in RNA Later (Ambion) for mRNA analysis. Preserved liver tissue was homogenized and total RNA isolated using a Qiagen bead mill and the Qiagen miRNA-Easy RNA isolation kit following the manufacturer's instructions. Liver ApoB mRNA levels were determined by quantitative RT-PCR. Message was amplified from purified RNA utilizing a rat ApoB commercial probe set (Applied Biosystems Cat # RN01499054_ml). The PCR reaction was performed on an ABI 7500 instrument with a 96-well Fast Block. The ApoB mRNA level is normalized to the housekeeping PPIB (NM 011149) mRNA. PPIB mRNA levels were determined by RT-PCR using a commercial probe set (Applied Biosytems Cat. No. Mm00478295_ml). Results are expressed as a ratio of ApoB mRNA/PPIB mRNA. All mRNA data is expressed relative to the PBS control dose. Serum ALT and AST analysis were performed on the Siemens Advia 1800 Clinical Chemistry Analyzer utilizing the Siemens alanine aminotransferase (Cat# 03039631) and aspartate aminotransferase (Cat# 03039631) reagents.

[4] = test system: mRNA transcript for the ApoB gene; assay: Rhesus monkey in vivo efficacy, serum LDL-C as surrogate marker of ApoB mRNA reduction; set-up: species or system Macaca mulatta (rhesus) monkey; settings: ApoB siRNA RDV; 3.6 mg/kilogram siRNA intravenous; average of two monkeys
Method: LNPs utilizing Compounds 9 or 12 in the nominal compositions described above, were evaluated for in vivo efficacy and increases in alanine amino transferases (ALT) and aspartate amino transferase (AST) in male or female Macaca mulatta (rhesus) monkeys. The siRNA targets the mRNA transcript for the ApoB gene (Accession # XM 001097404). […] The RDVs (containing siRNA) in PBS vehicle were administered by intravenous injection in the saphenous vein at an injection rate of 20 mL/minute to a dose level of 3.6 mg/kilogram siRNA. The injection volumes were from 1.9 to 2.1 mL/kilogram and monkeys ranged in weight from 2.5 to 4.5 kilograms. Each RDV or PBS control was administered to two monkeys. At multiple days post dose, 1 mL blood samples were drawn from the femoral artery for serum chemistry analysis. Monkeys were fasted overnight prior to blood draws. Serum ALT and AST analysis were performed on the Siemens Advia 1800 Clinical Chemistry Analyzer utilizing the Siemens alanine aminotransferase (Cat# 03039631) and aspartate aminotransferase (Cat# 03039631) reagents. As a measure of efficacy, LDL-C was monitored as a downstream surrogate marker of ApoB mRNA reduction. At eight days post systemic administration, of RDVs containing Compounds 9 or 12, reduced serum levels of LDL-C to less than 50% of pre-dose levels (FIG. 4). […]

[5] = Rhesus monkey in vivo toxicity, serum ALT and AST; set-up: species or system Macaca mulatta (rhesus) monkey; settings: ApoB siRNA RDV; 3.6 mg/kilogram siRNA intravenous
Method: LNPs utilizing Compounds 9 or 12 in the nominal compositions described above, were evaluated for in vivo efficacy and increases in alanine amino transferases (ALT) and aspartate amino transferase (AST) in male or female Macaca mulatta (rhesus) monkeys. The siRNA targets the mRNA transcript for the ApoB gene (Accession # XM 001097404). […] The RDVs (containing siRNA) in PBS vehicle were administered by intravenous injection in the saphenous vein at an injection rate of 20 mL/minute to a dose level of 3.6 mg/kilogram siRNA. The injection volumes were from 1.9 to 2.1 mL/kilogram and monkeys ranged in weight from 2.5 to 4.5 kilograms. Each RDV or PBS control was administered to two monkeys. At multiple days post dose, 1 mL blood samples were drawn from the femoral artery for serum chemistry analysis. Monkeys were fasted overnight prior to blood draws. Serum ALT and AST analysis were performed on the Siemens Advia 1800 Clinical Chemistry Analyzer utilizing the Siemens alanine aminotransferase (Cat# 03039631) and aspartate aminotransferase (Cat# 03039631) reagents. As a measure of efficacy, LDL-C was monitored as a downstream surrogate marker of ApoB mRNA reduction. At eight days post systemic administration, of RDVs containing Compounds 9 or 12, reduced serum levels of LDL-C to less than 50% of pre-dose levels (FIG. 4). The RDV containing Compound 9 reduced LDL-C levels to a greater extent than the RDV containing Compound 12 (ave.: −63% vs. −53%). ALT and AST were elevated relative to predose values in monkeys treated with both Compounds 9 and 12 RDVs (FIG. 4).

[6] = rat serum 24 hours after dosing

Row | Structure (SMILES) | Average % Inhibition of Bioluminescence ([1]; 0.1 mg Kg^−1) | Average % Inhibition of Bioluminescence ([1]; 0.3 mg Kg^−1) | Average % Inhibition of Bioluminescence ([1]; 1.0 mg Kg^−1) | Mouse plasma level of IL-6 relative to the PBS control [2] | Mouse plasma level of mKC relative to the PBS control [2] | AST levels, comparison of the RDVs [3, 6] | LFTs relative to PBS control dosed rats [3] | Reduction of LDL-C levels (ave.) [4] | ALT relative to predose values [5] | AST relative to predose values [5] | Elevation of ALT, comparison of the RDVs [5] | Elevation of AST, comparison of the RDVs [5] | Efficacy in decreasing luciferase expression, comparison of the RDVs ([1]; Luc siRNA RDV, Compound 9 RDV versus Compound 12 RDV) | Average cytokine induction, Compound 9 RDV relative to Compound 12 RDV [2] | ALT levels, comparison of the RDVs [3, 6]
1 | CCCCC/C=C\C/C=C\CCCCCCCCOCC(CN(C)C)OCCCCCCCCO[C@H]1CC[C@@]2(C)C(=CC[C@H]3[C@@H]4CC[C@H]([C@H](C)CCCC(C)C)[C@@]4(C)CC[C@@H]32)C1 (stereo partly shown) [Compound 12, S-Octyl CLinDMA, reference compound] | 54% | 74% | 88% | significantly increased | significantly increased | increased more strongly | An increase in LFTs | −53% | elevated | elevated | approximately equivalent | elevated to a markedly higher level |  |  | 
2 | CCCCCCCC/C=C\CCCCCCCCOC[C@@H](COCCCCCCO[C@H]1CC[C@@]2(C)C(=CC[C@@H]3C2CC[C@@]2(C)C3CC[C@@H]2[C@H](C)CCCC(C)C)C1)N(C)C (stereo partly shown) [Compound 9] | 80% | 89% | 91% | significantly increased | significantly increased |  | An increase in LFTs | −63% | elevated | elevated | approximately equivalent |  | Greater efficacy | lower | increased to a greater extent
